Experimental data: patent US11866414B2, “Substituted heterocyclic compounds” (BRISTOL-MYERS SQUIBB COMPANY, priority 2021, dated 2024)

Columns and labels:
[1] = system: IFNα-induced STAT phosphorylation (pSTAT5); experiment: IFNα-induced STAT phosphorylation in human whole blood; format: cell-based; settings: 1 h compound, 1000 U/mL IFNα A/D 15 min, CD3 positive population, read-out: Human Whole blood IFNa pSTAT5 IC50
Procedure: IFNα-Induced STAT Phosphorylation in Human Whole Blood
After an hour long incubation with compound, human whole blood (drawn with ACD-A as anticoagulant) was stimulated with 1000 U/mL recombinant human IFNα A/D (R&D Systems 11200-2) for 15 min. The stimulation was stopped by adding Fix/Lyse buffer (BD 558049). Cells were stained with a CD3 FITC antibody (BD 555916), washed, and permeabilized on ice using Perm III buffer (BD 558050). Cells were then stained with an Alexa-Fluor 647 pSTAT5 (pY694) antibody (BD 612599) for 60 min prior to analysis on the iQue Plus. The amount of pSTAT5 expression was quantitated by median fluorescence intensity after gating on the CD3 positive population.

[2] = in vitro; settings: human, Caco-2, pH 7.4

Structure (SMILES) | IC50 [1] [nM] | further results
CNC(=O)c1nnc(NC(=O)[C@@H]2CC23CC3)cc1Nc1cccc(-c2cnn(C)n2)c1OC [Example 13, 4-{[2-methoxy-3-(2-methyl-2H-1,2,3-triazol-4-yl)phenyl]amino}-N—(^2H3)methyl-6-[(1R)-spiro[2.2]pentane-1-amido]pyridazine-3-carboxamide] | 170 | –
[2H]C([2H])([2H])NC(=O)c1nnc(NC(=O)C2CC2)cc1Nc1cc(C(=O)OC)cc(-c2cnn(C)n2)c1OC [Example 32, methyl 3-((6-(cyclopropanecarboxamido)-3-((methyl-d3)carbamoyl)-pyridazin-4-yl)amino)-4-methoxy-5-(2-methyl-2H-1,2,3-triazol-4-yl)benzoate] | 220 | Papp A→B at 2 h, 3 μM [2]: 19.5 ×10⁻⁶ cm/s; efflux ratio at 2 h, 3 μM [2]: 0.9
[2H]C([2H])([2H])NC(=O)c1nnc(NC(=O)[C@@H]2C[C@H]2CC)cc1Nc1nccc(-c2cnn(C)n2)c1OC [Example 43, 6-((1R,2R)-2-ethylcyclopropane-1-carboxamido)-4-((3-methoxy-4-(2-methyl-2H-1,2,3-triazol-4-yl)pyridin-2-yl)amino)-N-(methyl-d3)pyridazine-3-carboxamide] | 280 | Papp A→B at 2 h, 3 μM [2]: 13.4 ×10⁻⁶ cm/s; efflux ratio at 2 h, 3 μM [2]: 0.6
CNC(=O)c1nnc(NC(=O)C2CC2)cc1Nc1nccc(-c2cnn(C3CC3)n2)c1OC [Example 14, 6-cyclopropaneamido-4-{[4-(2-cyclopropyl-2H-1,2,3-triazol-4-yl)-3-methoxypyridin-2-yl]amino}-N—(^2H3)methylpyridazine-3-carboxamide] | 190 | –
CNC(=O)c1nnc(NC(=O)C2CC2)cc1Nc1cccc(-c2cnn(C)n2)c1OC(F)F [Example 56, 6-cyclopropaneamido-4-{[2-(difluoromethoxy)-3-(2-methyl-2H-1,2,3-triazol-4-yl)phenyl]amino}-N—(^2H3)methylpyridazine-3-carboxamide] | 290 | –
CNC(=O)c1nnc(NC(=O)C2CC2)cc1Nc1cc(C)cc(-c2cnn(C)n2)c1OC [Example 17, 6-cyclopropaneamido-4-{[2-methoxy-5-methyl-3-(2-methyl-2H-1,2,3-triazol-4-yl)phenyl]amino}-N—(^2H3)methylpyridazine-3-carboxamide] | 40 | –
CNC(=O)c1nnc(NC(=O)C2CC2)cc1Nc1ccc(F)c(-c2cnn(C3CC3)n2)c1OC [Example 16, 6-cyclopropaneamido-4-{[3-(2-cyclopropyl-2H-1,2,3-triazol-4-yl)-4-fluoro-2-methoxyphenyl]amino}-N—(^2H3)methylpyridazine-3-carboxamide] | 1400 | –
CC(C)(C)NCC(O)COc1cccc2c1CC(O)C(O)C2 (stereo not shown) [Nadolol, reference compound] | – | Papp A→B at 2 h, 3 μM [2]: 2 ± 0.9 ×10⁻⁶ cm/s; Papp B→A at 2 h, 3 μM [2]: 2.5 ± 1.1 ×10⁻⁶ cm/s; efflux ratio at 2 h, 3 μM [2]: 1.3
CNC(=O)c1nnc(NC(=O)C2CC2)cc1Nc1cc(F)cc(-c2cnn(C3CC3)n2)c1OC [Example 12, 6-cyclopropaneamido-4-{[3-(2-cyclopropyl-2H-1,2,3-triazol-4-yl)-5-fluoro-2-methoxyphenyl]amino}-N—(^2H3)methylpyridazine-3-carboxamide] | 230 | –
CCN(C)C(=O)Nc1cc(Nc2nccc(-c3cnn(C)n3)c2OC)c(C(=O)NC)nn1 [Example 58, 6-{[ethyl(methyl)carbamoyl]amino}-4-{[3-methoxy-4-(2-methyl-2H-1,2,3-triazol-4-yl)pyridin-2-yl]amino}-N—(^2H3)methylpyridazine-3-carboxamide] | 230 | –
CNC(=O)c1nnc(NC(=O)C2CC2)cc1Nc1ccc(C2CC2)c(-c2cnn(C)n2)c1OC [Example 55, 6-cyclopropaneamido-4-{[4-cyclopropyl-2-methoxy-3-(2-methyl-2H-1,2,3-triazol-4-yl)phenyl]amino}-N—(^2H3)methylpyridazine-3-carboxamide] | 480 | –
CNC(=O)c1nnc(NC(=O)C2CC2)cc1Nc1nccc(-c2cnn(C)n2)c1OC(F)F [Example 60, 6-cyclopropaneamido-4-{[3-(difluoromethoxy)-4-(2-methyl-2H-1,2,3-triazol-4-yl)pyridin-2-yl]amino}-N—(^2H3)methylpyridazine-3-carboxamide] | 130 | –
CCn1ncc(-c2c(F)ccc(Nc3cc(NC(=O)C4CC4)nnc3C(=O)NC)c2OC)n1 [Example 10, 6-cyclopropaneamido-4-{[3-(2-ethyl-2H-1,2,3-triazol-4-yl)-4-fluoro-2-methoxyphenyl]amino}-N—(^2H3)methylpyridazine-3-carboxamide] | 290 | –
CNC(=O)c1nnc(NC(=O)N2CCC2)cc1Nc1cccc(-c2cnn(C)n2)c1OC [Example 51, 6-[(azetidine-1-carbonyl)amino]-4-{[2-methoxy-3-(2-methyl-2H-1,2,3-triazol-4-yl)phenyl]amino}-N—(^2H3)methylpyridazine-3-carboxamide] | 110 | –
CNC(=O)c1nnc(NC(=O)N(C)C(C)C)cc1Nc1nccc(-c2cnn(C)n2)c1OC [Example 59, 4-{[3-methoxy-4-(2-methyl-2H-1,2,3-triazol-4-yl)pyridin-2-yl]amino}-N—(^2H3)methyl-6-{[methyl(propan-2-yl)carbamoyl]amino}pyridazine-3-carboxamide] | 250 | –
CNC(=O)c1nnc(NC(=O)C2CC2)cc1Nc1cccc(-c2cnn(CCF)n2)c1OC [Example 2, 6-cyclopropaneamido-4-({3-[2-(2-fluoroethyl)-2H-1,2,3-triazol-4-yl]-2-methoxyphenyl}amino)-N—(^2H3)methylpyridazine-3-carboxamide] | 30 | –
CNC(=O)c1nnc(NC(=O)C2CC2)cc1Nc1ccc(F)c(-c2cnn(C)n2)c1OC [Example 18, 6-cyclopropaneamido-4-{[4-fluoro-2-methoxy-3-(2-methyl-2H-1,2,3-triazol-4-yl)phenyl]amino}-N—(^2H3)methylpyridazine-3-carboxamide] | 230 | –
CNC(=O)c1nnc(NC(=O)C2CC2)cc1Nc1cccc(-c2cnn(C3COC3)n2)c1OC [Example 53, 6-cyclopropaneamido-4-({2-methoxy-3-[2-(oxetan-3-yl)-2H-1,2,3-triazol-4-yl]phenyl}amino)-N—(^2H3)methylpyridazine-3-carboxamide] | 170 | –
CNC(=O)c1nnc(NC(=O)C2CC2)cc1Nc1cccc(-c2cnn(C3CCC3)n2)c1OC [Example 54, 4-{[3-(2-cyclobutyl-2H-1,2,3-triazol-4-yl)-2-methoxyphenyl]amino}-6-cyclopropaneamido-N—(^2H3)methylpyridazine-3-carboxamide] | 490 | –
CNC(=O)c1nnc(NC(=O)C2CC2)cc1Nc1cccc(-c2cnn(C)n2)c1OC [Example 52, 6-cyclopropaneamido-4-({2-methoxy-3-[2-(^2H3)methyl-2H-1,2,3-triazol-4-yl]phenyl}amino)-N—(^2H3)methylpyridazine-3-carboxamide] | 20 | –
CCn1ncc(-c2cc(Cl)cc(Nc3cc(NC(=O)C4CC4)nnc3C(=O)NC)c2OC)n1 [Example 15, 4-{[5-chloro-3-(2-ethyl-2H-1,2,3-triazol-4-yl)-2-methoxyphenyl]amino}-6-cyclopropaneamido-N—(^2H3)methylpyridazine-3-carboxamide] | 470 | –
CNC(=O)c1nnc(NC(=O)C2CC2)cc1Nc1cccc(-c2cnn(CC(F)F)n2)c1OC [Example 3, 6-cyclopropaneamido-4-({3-[2-(2,2-difluoroethyl)-2H-1,2,3-triazol-4-yl]-2-methoxyphenyl}amino)-N—(^2H3)methylpyridazine-3-carboxamide] | 220 | –
